Results published in US20260306640A1, “TECHNOLOGIES TARGETING CELL STATES” (Auron Therapeutics, Inc., priority 2023, published 2026).
“Also recorded” adds a separate entry of the source.

How the values were obtained:
[1] = system: NCI-H1048 human lung cancer xenograft; test: NCI-H1048 human lung cancer xenograft model, tumor growth inhibition (BALB/c nude mice); type: in vivo, mouse (BALB/c nude); human tumor cells; conditions: FIG. 1
Text: Among other things, provided technologies are useful for treating various diseases, disorders, or conditions. For example, in some embodiments, provided technologies are useful for treating cancer as confirmed in the present Example. In some embodiments, the present disclosure provides technologies for assessing various technologies, e.g., compounds, compositions, or methods. Among other things, the present Example provides technologies, e.g., xenograft model, for assessing various technologies. In some embodiments, provided technologies are assessed in tumor xenograft model. In some embodiments, provided technologies are assessed in NCI-H1048 human lung cancer xenograft model. […]
As described herein, various provided technologies are assessed in cancer xenograft models. […] A number of doses were assessed including 30 mg/kg. Assessed compounds were administered orally or via the intraperitoneal route. […]
Cell culture: NCI-H1048 tumor cells are maintained in vitro as monolayer culture in HITES Medium supplemented with 5% fetal bovine serum at 37° C. in an atmosphere of 5% CO2 in air. […] The cells growing in an exponential growth phase are harvested and counted for tumor inoculation. […]
Measurement Parameters: For routine monitoring, animals are monitored for tumor growth, behavior (e.g., mobility, food and water consumption), body weight (BW), eye/hair matting and other effects. […]

KAT2B [2] = biological target: T1, KAT2B (Homo sapiens, UniProt Q92831); test: Western blot of KAT2B level in NEPC primary patient organoid, 72 hours; type: cell-based; set-up: degrader, Western blot; conditions: FIG. 3 (D)
Method: FIG. 3. Provided compounds can provide various activities. (A): Provided technologies can reduce KAT2A and KAT2B levels and histone acetylation levels. […] Cell viability (Cell Titer Glo) data relative to DMSO control after 7 days of treatment with compound 22 are presented as examples to confirm inhibition. GI50=5 nM. (C): Provided technologies can modulate cell states and induce differentiation. […] (D): Provided technologies can reduce KAT2A and KAT2B levels and histone acetylation levels including in neuroendocrine prostate cancer primary patient organoid. […] Concentrations are nM. […] Cell viability data relative to DMSO control after 21 days of treatment with compound 22 are presented as examples to confirm inhibition. GI50=3 nM. (F): Provided technologies can modulate cell states and induce differentiation.

KAT2B [3] = biological target: T1, KAT2B; test: KAT2B reduction in LASCPC-01 cells; type: cell-based; set-up: degrader, Western blot
Method: MOLM-13 cells or NCI-H1048 cells were washed with PBS, then lysed with RIPA buffer containing 1×protease and phosphatase inhibitors (SantaCruz Biotechnologies Cat #sc-24948A). Protein was isolated by centrifugation at 12,000×g for 10 minutes at 4° C. and supernatant was collected. Protein was quantified via Bradford assay. Samples were diluted to 4 μg lysate in 16 μL RIPA buffer and then 4 μL of Jess Sample Buffer. Samples were heated at 95° C. for 5 minutes. Samples were loaded onto 12-230 kDa Jess™ Separation Module, 8×25 capillary cartridges (SM-W004, Biotechne). Antibodies loaded were: Primary antibody for KAT2A (GCN5L2 (C26A10) Rabbit mAb (3305, CST)) and for KAT2B (PCAF (C14G9)) Rabbit mAb (3378, CST) at 1:1000 and Anti-Rabbit Detection Module for Jess™ (Cat No #DM-001, Biotechne). Signal was detected by chemiluminescence.
In some embodiments, assessment was performed in LASCPC-01 cells, and reduction of KAT2A and KAT2B levels, including in some cases selectivity for one over the other, was confirmed. In some embodiments, DC50 and/or DC90 were assessed. In some embodiments, DC50 for various compounds was about or no more than about 1 nM. In some embodiments, DC90 for various compounds was about or no more than about 1 nM. In some embodiments, selectivity for the same polypeptide by a compound was observed across multiple types of cells (e.g., when assessed using DC50 and/or DC90). In some embodiments, certain compounds can provide improved properties and/or activities (e.g., potency). Data from certain assessments for certain compounds are presented below as examples (NT: not tested). It has been confirmed that various compounds described herein, including multiple compounds in Table 1, can be deemed to provide further improved properties and/or activities compared to the compound(s) in the table below for certain contexts, aspects, and/or uses.

T1 sequence (Q92831 whole entry): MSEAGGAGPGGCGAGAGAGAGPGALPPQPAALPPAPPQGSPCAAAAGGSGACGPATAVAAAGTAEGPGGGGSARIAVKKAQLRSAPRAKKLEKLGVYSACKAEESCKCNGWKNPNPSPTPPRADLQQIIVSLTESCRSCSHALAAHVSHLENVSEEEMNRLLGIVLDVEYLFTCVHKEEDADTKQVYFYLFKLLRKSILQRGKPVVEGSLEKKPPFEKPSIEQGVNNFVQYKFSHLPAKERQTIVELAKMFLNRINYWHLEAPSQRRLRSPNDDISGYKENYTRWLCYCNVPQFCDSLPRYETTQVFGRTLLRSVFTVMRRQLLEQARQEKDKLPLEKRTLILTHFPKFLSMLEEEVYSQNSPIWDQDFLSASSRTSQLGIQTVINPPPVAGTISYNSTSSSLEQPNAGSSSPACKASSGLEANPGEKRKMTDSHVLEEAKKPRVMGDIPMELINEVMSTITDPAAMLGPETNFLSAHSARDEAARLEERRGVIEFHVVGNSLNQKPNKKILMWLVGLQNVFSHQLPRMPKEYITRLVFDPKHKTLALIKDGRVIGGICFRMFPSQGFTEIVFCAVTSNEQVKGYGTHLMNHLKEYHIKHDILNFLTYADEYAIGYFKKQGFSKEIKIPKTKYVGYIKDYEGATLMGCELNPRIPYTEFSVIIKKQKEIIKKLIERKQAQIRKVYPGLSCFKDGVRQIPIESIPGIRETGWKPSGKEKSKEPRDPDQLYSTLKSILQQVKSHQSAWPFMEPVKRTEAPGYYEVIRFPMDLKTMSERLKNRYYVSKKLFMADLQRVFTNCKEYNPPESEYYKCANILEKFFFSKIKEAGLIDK

reduction of KAT2B level (KAT2B [2]): confirmed such reductions
DC50 (KAT2B [3]; LASCPC-01, KAT2B): 0.16 nM
EC90 (KAT2B [3]; LASCPC-01, KAT2B, read-out: DC90 (the source's name)): 0.42 nM
KAT2B levels (KAT2B [3]; LASCPC-01 cells, FIG. 3): potently reduce KAT2A and KAT2B levels
Structure (SMILES): CN1C[C@H](Nc2cnn(C)c(=O)c2Br)C[C@H](c2ccc(C(=O)N3CCC(CN4CCN(c5ccc6c(c5)CN(C5CCC(=O)NC5=O)C6=O)CC4)CC3)cc2)C1 (stereo partly drawn) [Compound 22, 3-(5-(4-((1-(4-((3R,5R)-5-((5-bromo-1-methyl-6-oxo-1,6-dihydropyridazin-4-yl)amino)-1-methylpiperidin-3-yl)benzoyl)piperidin-4-yl)methyl)piperazin-1-yl)-1-oxoisoindolin-2-yl)piperidine-2,6-dione]
tumor growth inhibition in vivo [1]: tumor growth inhibition in vivo; also recorded: inhibit cell growth in vitro and in vivo
